# Earlier results, collected in patent US7510874B2, “Stable cell lines expressing HERG1a and HERG1b” (priority 2003, dated 2009).
# Target: IKr currents (Homo sapiens, UniProt Q12809)
# Conditions: background statement with literature references
# IKr currents, sequence (Q12809 whole entry): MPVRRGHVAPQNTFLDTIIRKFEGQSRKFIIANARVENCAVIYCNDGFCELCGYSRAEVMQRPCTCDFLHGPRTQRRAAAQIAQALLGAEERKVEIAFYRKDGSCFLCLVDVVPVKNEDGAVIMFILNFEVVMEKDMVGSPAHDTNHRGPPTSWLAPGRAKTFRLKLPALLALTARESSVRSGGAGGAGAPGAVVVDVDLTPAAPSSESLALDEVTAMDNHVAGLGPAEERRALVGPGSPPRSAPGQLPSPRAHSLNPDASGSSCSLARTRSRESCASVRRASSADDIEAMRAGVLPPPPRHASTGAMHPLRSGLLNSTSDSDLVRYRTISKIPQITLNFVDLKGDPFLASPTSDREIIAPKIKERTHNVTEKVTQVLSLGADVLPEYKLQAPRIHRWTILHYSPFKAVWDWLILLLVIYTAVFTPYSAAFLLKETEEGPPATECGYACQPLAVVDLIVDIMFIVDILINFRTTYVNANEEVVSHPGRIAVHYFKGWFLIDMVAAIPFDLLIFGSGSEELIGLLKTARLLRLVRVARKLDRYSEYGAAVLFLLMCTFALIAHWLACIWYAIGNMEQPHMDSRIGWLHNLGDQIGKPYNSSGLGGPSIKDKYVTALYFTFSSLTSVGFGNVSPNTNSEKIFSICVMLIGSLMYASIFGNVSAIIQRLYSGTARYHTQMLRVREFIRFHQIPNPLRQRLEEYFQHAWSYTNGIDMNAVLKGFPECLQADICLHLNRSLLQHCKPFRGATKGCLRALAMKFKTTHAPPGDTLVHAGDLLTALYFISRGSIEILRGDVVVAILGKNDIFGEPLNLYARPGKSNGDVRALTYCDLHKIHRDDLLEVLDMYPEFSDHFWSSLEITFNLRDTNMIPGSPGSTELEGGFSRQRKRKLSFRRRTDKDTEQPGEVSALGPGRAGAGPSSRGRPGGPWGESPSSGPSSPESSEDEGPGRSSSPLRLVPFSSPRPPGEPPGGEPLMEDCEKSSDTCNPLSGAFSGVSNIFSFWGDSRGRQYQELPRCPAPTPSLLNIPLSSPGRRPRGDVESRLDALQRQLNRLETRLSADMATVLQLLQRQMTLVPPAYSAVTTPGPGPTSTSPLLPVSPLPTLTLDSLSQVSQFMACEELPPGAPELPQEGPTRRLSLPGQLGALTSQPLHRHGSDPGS
structure (smiles),measurement,value
COc1cc(N)c(Cl)cc1C(=O)NC1CCN(CCCOc2ccc(F)cc2)CC1OC (stereo not shown) [cisapride],block of IKr currents (cause of acquired LQTS),block of IKr currents
